According to patent US20250049929A1, “NOVEL TETRAHYDROQUINOLINES AND PROTEOLYSIS TARGETING CHIMERA (PROTACS) COMPRISING THEM AS DEGRADERS OF SMARCA” (Boehringer Ingelheim International GmbH, priority 2021, published 2025):

Experiments:
SMARCA4 = molecular target: T1, SMARCA4 (Homo sapiens, UniProt P51532); assay: SMARCA4 degradation analysis by imaging in RKO cells (DC50 A4); format: cell-based; conditions: tables 69, 70, 73, 76-78
T1 construct: endogenous in cells; host or cells: RKO cells (CRL-2577, ATCC)
T1 sequence (P51532 whole entry): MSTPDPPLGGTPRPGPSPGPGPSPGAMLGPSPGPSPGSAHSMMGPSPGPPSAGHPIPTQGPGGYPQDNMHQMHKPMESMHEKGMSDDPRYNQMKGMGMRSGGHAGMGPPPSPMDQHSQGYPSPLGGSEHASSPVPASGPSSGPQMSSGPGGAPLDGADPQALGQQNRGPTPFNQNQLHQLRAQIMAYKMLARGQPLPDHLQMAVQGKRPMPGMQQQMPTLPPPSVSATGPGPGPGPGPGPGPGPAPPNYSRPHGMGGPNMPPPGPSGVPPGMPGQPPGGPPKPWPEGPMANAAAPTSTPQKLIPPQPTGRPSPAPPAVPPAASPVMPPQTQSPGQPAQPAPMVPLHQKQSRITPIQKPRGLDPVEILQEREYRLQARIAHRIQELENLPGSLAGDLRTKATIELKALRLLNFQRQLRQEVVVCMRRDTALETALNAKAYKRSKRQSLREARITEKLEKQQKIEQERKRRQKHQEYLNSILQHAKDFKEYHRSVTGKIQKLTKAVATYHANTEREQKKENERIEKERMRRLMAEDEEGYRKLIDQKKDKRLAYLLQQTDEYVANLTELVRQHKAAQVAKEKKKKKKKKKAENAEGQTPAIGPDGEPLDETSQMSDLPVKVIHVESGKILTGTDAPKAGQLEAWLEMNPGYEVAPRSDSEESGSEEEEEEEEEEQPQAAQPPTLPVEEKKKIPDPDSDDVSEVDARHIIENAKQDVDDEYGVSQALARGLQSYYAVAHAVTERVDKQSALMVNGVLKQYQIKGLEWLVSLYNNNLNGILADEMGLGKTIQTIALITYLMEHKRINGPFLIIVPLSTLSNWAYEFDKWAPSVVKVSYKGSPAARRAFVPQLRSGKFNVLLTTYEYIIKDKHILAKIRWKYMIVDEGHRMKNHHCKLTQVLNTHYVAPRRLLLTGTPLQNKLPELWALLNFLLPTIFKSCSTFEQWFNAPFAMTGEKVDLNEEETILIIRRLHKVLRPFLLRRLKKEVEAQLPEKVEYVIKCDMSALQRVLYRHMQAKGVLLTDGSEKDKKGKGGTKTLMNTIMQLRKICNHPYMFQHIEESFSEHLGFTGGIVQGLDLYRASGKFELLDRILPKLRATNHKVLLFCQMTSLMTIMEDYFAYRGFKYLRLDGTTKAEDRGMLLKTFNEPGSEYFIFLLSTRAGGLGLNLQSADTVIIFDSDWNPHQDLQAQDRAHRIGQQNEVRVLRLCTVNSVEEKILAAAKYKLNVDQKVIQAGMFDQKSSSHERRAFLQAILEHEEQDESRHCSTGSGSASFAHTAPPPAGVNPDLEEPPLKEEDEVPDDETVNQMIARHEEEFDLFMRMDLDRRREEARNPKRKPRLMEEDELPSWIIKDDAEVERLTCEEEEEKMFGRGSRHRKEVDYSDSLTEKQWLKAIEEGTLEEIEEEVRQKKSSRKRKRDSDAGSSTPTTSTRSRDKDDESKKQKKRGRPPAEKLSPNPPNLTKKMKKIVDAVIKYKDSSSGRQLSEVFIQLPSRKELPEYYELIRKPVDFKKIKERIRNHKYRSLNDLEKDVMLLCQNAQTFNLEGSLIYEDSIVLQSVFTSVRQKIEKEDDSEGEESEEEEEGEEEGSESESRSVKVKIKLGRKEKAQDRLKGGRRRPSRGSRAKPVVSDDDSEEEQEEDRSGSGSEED
Procedure: (§1) Determination of SMARCA2 and SMARCA4 Degradation (DC50 A2 and A4 [nM])
(§2) Protein Degradation Assays for SMARCA2 and SMARCA4
(§3) For degradation analysis by imaging, 1250 RKO cells (CRL-2577, ATCC) per well were seeded into 60 μL DMEM (Sigma Aldrich) supplemented with 10% FBS (Hyclone) in 384-well flat bottom plates (CellCarrier Ultra, Perkin Elmer) and incubated at 37° C. and 5% CO2 in a humidified atmosphere overnight. Compounds were added the next day using an Access Labcyte Workstation with a Labcyte Echo 550 or 555 acoustic dispenser and incubated with the cells for 4 or 24 h. Cells were fixed by adding 25 μL fixation buffer (7.4% formaldehyde (Sigma Aldrich F8775), 0.2% Triton TX100 (Sigma Aldrich F93443) in PBS) for 15 minutes at room temperature. After aspirating the fixing solution, the cells were washed once with 25 μL PBS and 25 μL of Blocking Buffer (10% Goat Serum in PBS) were added to each well and incubated for 30 minutes. Cells were washed with PBS and incubated with 20 μL mouse anti-Smarca4 (BRG1) antibody (Cell Signaling #52251) or rabbit anti-Smarca2 (BRM) antibody (Sigma Aldrich HPA029981) in blocking solution (PBS with 10% FCS) for ca. 2-4 h at RT. For detection of the nuclei, 25 μL of 5 μg/mL Hoechst 33342 (stock 10 mg/mL in H2O; Invitrogen H1399) were added together with Alexa Fluor 647 goat anti-mouse IgG (Invitrogen A-21235) or Alexa Fluor 488 goat anti-rabbit IgG (Invitrogen A-11034) in blocking solution and incubated for 60 min at RT. The cell layer was washed with 25 μL PBS, the wells were filled with 25 μL PBS and the plates sealed with an adhesive sheet. The mean intensity at 488 or 647 nm in the nucleus was measured using an Opera Phenix Plus High-Content Screening System (Perkin Elmer), values were normalized to the background and DMSO control and DC50 values were calculated and analyzed using a four-parametric logistic model.

SMARCA2 = molecular target: T2, SMARCA2 (Homo sapiens, UniProt P51531); assay: SMARCA2 degradation analysis by imaging in RKO cells (DC50 A2); format: cell-based; conditions: tables 69, 70, 73, 76-78
T2 construct: endogenous in cells; host or cells: RKO cells (CRL-2577, ATCC)
T2 sequence (P51531 whole entry): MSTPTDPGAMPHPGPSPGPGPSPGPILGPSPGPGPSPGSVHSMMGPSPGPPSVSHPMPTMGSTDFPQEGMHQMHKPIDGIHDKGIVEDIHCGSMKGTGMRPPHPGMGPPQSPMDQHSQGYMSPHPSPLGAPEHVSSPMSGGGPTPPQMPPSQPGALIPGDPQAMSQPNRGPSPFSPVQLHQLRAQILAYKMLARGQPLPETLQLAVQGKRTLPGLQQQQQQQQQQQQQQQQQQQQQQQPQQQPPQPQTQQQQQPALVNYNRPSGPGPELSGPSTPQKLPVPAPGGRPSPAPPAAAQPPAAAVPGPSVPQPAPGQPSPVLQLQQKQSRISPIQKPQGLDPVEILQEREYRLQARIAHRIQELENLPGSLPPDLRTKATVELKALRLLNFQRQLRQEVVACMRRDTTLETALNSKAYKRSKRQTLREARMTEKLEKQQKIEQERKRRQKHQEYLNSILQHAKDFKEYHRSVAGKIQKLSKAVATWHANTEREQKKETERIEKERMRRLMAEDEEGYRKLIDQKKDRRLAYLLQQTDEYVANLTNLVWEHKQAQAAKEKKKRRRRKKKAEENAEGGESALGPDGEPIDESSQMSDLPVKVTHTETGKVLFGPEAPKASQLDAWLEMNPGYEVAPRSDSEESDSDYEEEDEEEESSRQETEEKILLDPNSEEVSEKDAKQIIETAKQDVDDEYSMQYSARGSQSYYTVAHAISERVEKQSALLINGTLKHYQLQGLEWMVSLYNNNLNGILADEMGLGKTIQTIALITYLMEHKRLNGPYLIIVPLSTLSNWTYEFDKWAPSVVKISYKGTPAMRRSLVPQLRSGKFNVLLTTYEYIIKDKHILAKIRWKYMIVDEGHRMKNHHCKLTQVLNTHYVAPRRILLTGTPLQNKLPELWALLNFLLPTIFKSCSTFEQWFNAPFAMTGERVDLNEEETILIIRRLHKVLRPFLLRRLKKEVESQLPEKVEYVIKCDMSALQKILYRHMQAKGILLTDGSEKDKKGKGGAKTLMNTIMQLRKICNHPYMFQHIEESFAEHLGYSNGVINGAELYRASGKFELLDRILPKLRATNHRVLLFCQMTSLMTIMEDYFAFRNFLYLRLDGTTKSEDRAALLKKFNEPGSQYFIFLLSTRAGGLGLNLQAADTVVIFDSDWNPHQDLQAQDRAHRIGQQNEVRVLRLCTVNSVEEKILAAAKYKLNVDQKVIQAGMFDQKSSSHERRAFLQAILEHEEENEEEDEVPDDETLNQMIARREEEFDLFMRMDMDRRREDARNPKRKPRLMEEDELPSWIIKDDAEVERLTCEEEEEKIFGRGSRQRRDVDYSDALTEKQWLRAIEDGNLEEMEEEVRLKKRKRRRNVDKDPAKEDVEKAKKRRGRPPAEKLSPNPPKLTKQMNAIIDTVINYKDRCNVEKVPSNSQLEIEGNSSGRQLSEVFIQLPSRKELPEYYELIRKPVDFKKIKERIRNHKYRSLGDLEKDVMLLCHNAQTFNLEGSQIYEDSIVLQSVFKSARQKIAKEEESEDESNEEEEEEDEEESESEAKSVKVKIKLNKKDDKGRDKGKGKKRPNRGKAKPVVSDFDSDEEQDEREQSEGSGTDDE
Procedure: as §1, §2, §3

Row | SMILES | DC50 (SMARCA4) [µM] | DC50 (SMARCA2) [µM]
1 | Cc1ncsc1-c1ccc([C@H](CCCN2CCC(c3cc4c(cc3OCCCN(C)C)n3c5cccc(Br)c5c(=O)nc3n4C3CCCC3)CC2)NC(=O)[C@@H]2C[C@@H](O)CN2C(=O)[C@@H](NC(=O)C2(F)CC2)C(C)(C)C)cc1 [Compound 42aa] | 0.02 | 0.01
2 | Cc1ncsc1-c1ccc([C@H](COCCN2CCC(c3cc4c(cc3OCCN3CCN(C)CC3)n3c5cccc(Br)c5c(=O)nc3n4C3CCCC3)CC2)NC(=O)[C@@H]2C[C@@H](O)CN2C(=O)[C@@H](NC(=O)C2(F)CC2)C(C)(C)C)cc1 [Compound 42ab] | > 0.2 | 0.021
3 | Cc1ncsc1-c1ccc([C@H](CO[C@@H](C)CN2CCC(c3ccc4c(c3)n(C3CCCC3)c3nc(=O)c5c(Br)cccc5n43)CC2)NC(=O)[C@@H]2C[C@@H](O)CN2C(=O)[C@@H](NC(=O)C2(F)CC2)C(C)(C)C)cc1 [Compound 42ac] | > 0.2 | 0.02
4 | Cc1ncsc1-c1ccc([C@H](CCCN2CCC(c3ccc4c(c3)n(C3COC3)c3nc(=O)c5c(Br)cccc5n43)CC2)NC(=O)[C@@H]2C[C@@H](O)CN2C(=O)[C@@H](NC(=O)C2(F)CC2)C(C)(C)C)cc1 [Compound 42ad] | > 0.2 | 0.025
5 | Cc1ncsc1-c1ccc([C@H](COCC(O)CN2CCC(c3ccc4c(c3)n(C3CCCC3)c3nc(=O)c5c(Br)cccc5n43)CC2)NC(=O)[C@@H]2C[C@@H](O)CN2C(=O)[C@@H](NC(=O)C2(F)CC2)C(C)(C)C)cc1 (some centres unmarked) [Compound 42af] | 0.025 | 0.006
6 | CCn1c2cc(C3CCN(CCCCCOC[C@H](NC(=O)[C@@H]4C[C@@H](O)CN4C(=O)[C@@H](NC(=O)C4(N(C)C)CC4)C(C)(C)C)c4ccc(-c5scnc5C)cc4)CC3)c(OCCOCCOC)cc2n2c3cccc(Br)c3c(=O)nc12 [Compound 42ag] | > 0.2 | 0.009
7 | Cc1ncsc1-c1ccc([C@H](COCCN2CCC(c3ccc4c(c3)n(C3CCCC3)c3nc(=O)c5c(Br)cccc5n43)CC2)NC(=O)[C@@H]2C[C@@H](O)CN2C(=O)[C@@H](NC(=O)C2(N(C)C)CC2)C(C)(C)C)cc1 [Compound 42aj] | – | 0.004
8 | Cc1ncsc1-c1ccc([C@H](COCCCN2CCC(c3ccc4c(c3)n(C3CCCC3)c3nc(=O)c5c(Br)cccc5n43)CC2)NC(=O)[C@@H]2C[C@@H](O)CN2C(=O)[C@@H](NC(=O)C2(F)CC2)C(C)(C)C)cc1 [Compound 42ak] | 0.011 | 0.002
9 | Cc1ncsc1-c1ccc([C@@H](CC[C@@H](C)CCN2CCC(c3ccc4c(c3)n(C3CCCC3)c3nc(=O)c5c(Br)cccc5n43)CC2)NC(=O)[C@@H]2C[C@@H](O)CN2C(=O)[C@@H](NC(=O)C2(F)CC2)C(C)(C)C)cc1 [Compound 42as] | > 0.833 | 0.082
10 | Cc1ncsc1-c1ccc([C@@H](CC[C@H](C)CCN2CCC(c3ccc4c(c3)n(C3CCCC3)c3nc(=O)c5c(Br)cccc5n43)CC2)NC(=O)[C@@H]2C[C@@H](O)CN2C(=O)[C@@H](NC(=O)C2(F)CC2)C(C)(C)C)cc1 [Compound 42at] | > 0.833 | 0.057
11 | Cc1ncsc1-c1ccc([C@H](CCCCCN2C[C@@H]3C[C@H]2CN3c2ccc3c(c2)n(C2CCCC2)c2nc(=O)c4c(Br)cccc4n32)NC(=O)[C@@H]2C[C@@H](O)CN2C(=O)[C@@H](NC(=O)C2(F)CC2)C(C)(C)C)cc1 [Compound 42au] | > 0.833 | 0.007
12 | Cc1ncsc1-c1ccc([C@H](COCCN2CCC(c3cc4c(cc3F)n3c5cccc(Br)c5c(=O)nc3n4C3CCCC3)CC2)NC(=O)[C@@H]2C[C@@H](O)CN2C(=O)[C@@H](NC(=O)C2(F)CC2)C(C)(C)C)cc1 [Compound 42av] | 0.162 | 0.013
13 | Cc1ncsc1-c1ccc([C@H](CCCCCN2CCC(c3cc4c(cn3)n3c5cccc(Br)c5c(=O)nc3n4C3CCCC3)CC2)NC(=O)[C@@H]2C[C@@H](O)CN2C(=O)[C@@H](NC(=O)C2(F)CC2)C(C)(C)C)cc1 [Compound 42aw] | > 0.833 | 0.006
14 | Cc1ncsc1-c1ccc([C@H](CCCCN(C)C2CCC(c3ccc4c(c3)n(C3CCCC3)c3nc(=O)c5c(Br)cccc5n43)CC2)NC(=O)[C@@H]2C[C@@H](O)CN2C(=O)[C@@H](NC(=O)C2(F)CC2)C(C)(C)C)cc1 (some centres unmarked) [Compound 42ax] | 0.029 | 0.007
15 | COc1cc2c(cc1C1CCN(CCOC[C@H](NC(=O)[C@@H]3C[C@@H](O)CN3C(=O)[C@@H](NC(=O)C3(F)CC3)C(C)(C)C)c3ccc(-c4scnc4C)cc3)CC1)n(C1CCCC1)c1nc(=O)c3c(Br)cccc3n21 [Compound 42ay] | 0.109 | 0.015

More lines, in order of falling DC50 (SMARCA2), values ahead:

Row | DC50 (SMARCA4) [µM] | DC50 (SMARCA2) [µM] | SMILES
16 | 0.017 | 0.002 | Cc1ncsc1-c1ccc([C@H](CCCN2CCC(c3ccc4c(c3)n(C3CCCC3)c3nc(=O)c5c(Br)cccc5n43)CC2)NC(=O)[C@@H]2C[C@@H](O)CN2C(=O)[C@@H](NC(=O)C2(N(C)C)CC2)C(C)(C)C)cc1 [Compound 42ah]
17 | 0.009 | 0.002 | Cc1ncsc1-c1ccc([C@H](CCCCN2CCC(c3ccc4c(c3)n(C3CCCC3)c3nc(=O)c5c(Br)cccc5n43)CC2)NC(=O)[C@@H]2C[C@@H](O)CN2C(=O)[C@@H](NC(=O)C2(F)CC2)C(C)(C)C)cc1 [Compound 42ai]
18 | 0.005 | 0.001 | CC(C)(C)[C@H](NC(=O)C1(F)CC1)C(=O)N1C[C@H](O)C[C@H]1C(=O)N[C@@H](CCCN1CCC(c2ccc3c(c2)n(C2CCCC2)c2nc(=O)c4c(Br)cccc4n32)CC1)c1ccc(-c2cncs2)cc1 [Compound 42ae]
19 | 0.017 | 0.001 | Cc1ncsc1-c1ccc([C@H](CCCCCN2CCN(c3ccc4c(c3)n(C3CCCC3)c3nc(=O)c5c(Br)cccc5n43)CC2(C)C)NC(=O)[C@@H]2C[C@@H](O)CN2C(=O)[C@@H](NC(=O)C2(F)CC2)C(C)(C)C)cc1 [Compound 42ao]
20 | 0.009 | 0.001 | Cc1ncsc1-c1ccc([C@H](CCCCCN2CCN(c3ccc4c(c3)n(C3CCCC3)c3nc(=O)c5c(Br)cccc5n43)[C@H](C)C2)NC(=O)[C@@H]2C[C@@H](O)CN2C(=O)[C@@H](NC(=O)C2(F)CC2)C(C)(C)C)cc1 [Compound 42aq]
21 | 0.025 | 0.0009 | Cc1ncsc1-c1ccc([C@H](CC[C@H](C)CCN2CCC(c3ccc4c(c3)n(C3CCCC3)c3nc(=O)c5c(Br)cccc5n43)CC2)NC(=O)[C@@H]2C[C@@H](O)CN2C(=O)[C@@H](NC(=O)C2(F)CC2)C(C)(C)C)cc1 [Compound 42a]
22 | 0.025 | 0.0009 | Cc1ncsc1-c1ccc([C@H](CCCN2CCC(c3cc4c(cc3OCCOCCO)n3c5cccc(Br)c5c(=O)nc3n4C3CCCC3)CC2)NC(=O)[C@@H]2C[C@@H](O)CN2C(=O)[C@@H](NC(=O)C2(F)CC2)C(C)(C)C)cc1 [Compound 42am]
23 | 0.007 | 0.0006 | Cc1ncsc1-c1ccc([C@H](CO[C@H](C)CN2CCC(c3cc4c(cc3OC[C@@H]3CCCO3)n3c5cccc(Br)c5c(=O)nc3n4C3CCCC3)CC2)NC(=O)[C@@H]2C[C@@H](O)CN2C(=O)[C@@H](NC(=O)C2(F)CC2)C23CC4CC(CC(C4)C2)C3)cc1 [Compound 42an]
24 | 0.002 | 0.0005 | Cc1ncsc1-c1ccc([C@H](CCCCCN2CCN(c3ccc4c(c3)n(C3CCCC3)c3nc(=O)c5c(Br)cccc5n43)[C@@H](C)C2)NC(=O)[C@@H]2C[C@@H](O)CN2C(=O)[C@@H](NC(=O)C2(F)CC2)C(C)(C)C)cc1 [Compound 42ar]
